Source: the NIST ThermoML archive (doi:10.1016/j.tca.2013.09.032)
± gives the expanded uncertainty stated by the source.

Conditions: 101.33 kPa, Crystal, Vacuum adiabatic calorimetry

Cc1cc2nc3c(=O)[nH]c(=O)nc-3n(C[C@H](O)[C@H](O)[C@H](O)CO)c2cc1C [riboflavin]
Conditions | molar entropy [J/K/mol]
1 K | 0.0261 ± 0.015
2 K | 0.105 ± 0.017
3 K | 0.235 ± 0.019
4 K | 0.418 ± 0.021
5 K | 0.653 ± 0.024
6 K | 0.941 ± 0.028
7 K | 1.28 ± 0.032
8 K | 1.66 ± 0.036
9 K | 2.1 ± 0.041
10 K | 2.58 ± 0.046
15 K | 5.898 ± 0.076
20 K | 10.48 ± 0.11
25 K | 15.97 ± 0.13
30 K | 22.23 ± 0.13
35 K | 29.06 ± 0.15
40 K | 36.3 ± 0.17
45 K | 43.84 ± 0.19
50 K | 51.59 ± 0.22
60 K | 67.55 ± 0.26
70 K | 83.87 ± 0.31
80 K | 100.3 ± 0.4
90 K | 116.8 ± 0.5
100 K | 133.4 ± 0.5
110 K | 149.9 ± 0.5
120 K | 166.2 ± 0.6
130 K | 182.4 ± 0.6
140 K | 198.4 ± 0.6
150 K | 214.3 ± 0.6
160 K | 230.1 ± 0.6
170 K | 245.7 ± 0.7
180 K | 261.3 ± 0.7
190 K | 276.8 ± 0.7
200 K | 292.2 ± 0.7
210 K | 307.5 ± 0.8
220 K | 322.7 ± 0.8
230 K | 337.9 ± 0.8
240 K | 353 ± 0.8
250 K | 368 ± 0.9
260 K | 383 ± 0.9
270 K | 397.9 ± 0.9
273.15 K | 402.6 ± 0.9
280 K | 412.8 ± 0.9
290 K | 427.7 ± 0.9
298.15 K | 439.8 ± 1
310 K | 457.3 ± 1
320 K | 472.1 ± 1
322 K | 475 ± 1
